# Data as given in patent publication US12643887B2, “Heterocyclic derivatives with cardiomyocyte proliferation activity for treatment of heart diseases” (Tongji University, priority 2019, dated 2026).
# Like-named read-outs stand apart in the source and are kept apart here.
# Key:
# [1] = target: T1, human CK2a2 (CSNK2a2) (Homo sapiens, UniProt P19784); test: CK2a2 (CSNK2a2) enzyme assay (ADP-Glo); assay type: biochemical
# T1 construct: Recombinant human CK2a2 (CSNK2a2) (full length); GST (N); purchased SignalChem C71-10G; host or cells: Sf9 insect cells
# T1 sequence (P19784 whole entry): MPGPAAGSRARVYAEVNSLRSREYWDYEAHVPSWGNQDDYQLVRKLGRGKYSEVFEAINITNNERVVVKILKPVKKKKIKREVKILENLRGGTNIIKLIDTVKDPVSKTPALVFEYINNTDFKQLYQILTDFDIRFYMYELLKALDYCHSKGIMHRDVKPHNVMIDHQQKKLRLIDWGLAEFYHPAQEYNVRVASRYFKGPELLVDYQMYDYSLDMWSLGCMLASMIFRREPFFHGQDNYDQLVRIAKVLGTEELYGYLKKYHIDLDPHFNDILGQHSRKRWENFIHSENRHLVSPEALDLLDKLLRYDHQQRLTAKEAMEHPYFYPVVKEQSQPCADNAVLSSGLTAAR
# Experimental: 8. CK2a2 (CSNK2a2) Enzyme Assay
# The ability of compounds to inhibit human CK2a2 (CSNK2a2) kinase activities was determined using a commercially available ADP-Glo™ Kinase Assay kit (Promega, Cat #V9102) according to the manufacturer's protocol.
# Recombinant human CK2a2 (CSNK2a2) (full length) (expressed in Sf9 insect cells with an N-terminal GST tag) was purchased from SignalChem (Cat #C71-10G). CK2 substrate (sequence: […]) was purchased from SignalChem (Cat #C08-58). This assay, run in a 384-well plate format, is a generic method for measuring kinase activities using an ADP-Glo Kinase Assay Kit. The basic assay procedure involves two steps: (1) Enzymatic step: inhibitors are incubated with the kinase and then ATP (included in the ADP-Glo Kinase Assay Kit) and the MBP protein are added to start the enzymatic reaction; (2) Detection step: after the kinase reaction, first ADP-Glo™ Reagent is added to terminate the kinase reaction and deplete the remaining ATP. Second, the Kinase Detection Reagent is added to simultaneously convert ADP to ATP and allow the newly synthesized ATP to be measured using a luciferase/luciferin reaction. The light generated is measured using a luminometer.
# (§1) Briefly, CK2a2 (CSNK2a2) (7 nM) in the enzymatic buffer solutions (40 mM Tris, pH 7.5, 20 mM MgCl2, 0.1 mg/ml BSA, 50 μM DTT) were mixed with various concentrations of inhibitors (dissolved in 100% DMSO). These solutions were incubated for 30 minutes at 25° C., and subsequently a mixture of substrate peptide and ATP was added with the final peptide and ATP concentrations at 0.04 mg/ml and 15 μM, respectively. The final reaction mixture of enzyme-substrate-ATP-compound was incubated for 90 minutes at 25° C.
# (§2) Afterwards ADP-Glo™ Reagent was added and the mixture was incubated at 25° C. for 60 minutes. Then Kinase Detection Reagent was added, and the final mixture was incubated at 25° C. for 60 minutes. The luminescence signal of the final solution was measured on an Envision instrument (PerkinElmer). The percent (%) inhibition at each concentration of a compound is calculated relative to the luminescence signal in the Max and Min control wells contained within each assay plate. […] The concentrations and percent inhibition values for a test compound are plotted and the concentration of the compound required to achieve 50% inhibition (IC50) is determined with a four-parameter logistic dose response equation.
# [2] = target: T2, human CIT (Homo sapiens, UniProt O14578); test: CIT enzyme assay (ADP-Glo); assay type: biochemical
# T2 construct: Recombinant human CIT (1-499); GST (N); purchased SignalChem C52-11G; host or cells: Sf9 insect cells
# T2 sequence (O14578 1-499): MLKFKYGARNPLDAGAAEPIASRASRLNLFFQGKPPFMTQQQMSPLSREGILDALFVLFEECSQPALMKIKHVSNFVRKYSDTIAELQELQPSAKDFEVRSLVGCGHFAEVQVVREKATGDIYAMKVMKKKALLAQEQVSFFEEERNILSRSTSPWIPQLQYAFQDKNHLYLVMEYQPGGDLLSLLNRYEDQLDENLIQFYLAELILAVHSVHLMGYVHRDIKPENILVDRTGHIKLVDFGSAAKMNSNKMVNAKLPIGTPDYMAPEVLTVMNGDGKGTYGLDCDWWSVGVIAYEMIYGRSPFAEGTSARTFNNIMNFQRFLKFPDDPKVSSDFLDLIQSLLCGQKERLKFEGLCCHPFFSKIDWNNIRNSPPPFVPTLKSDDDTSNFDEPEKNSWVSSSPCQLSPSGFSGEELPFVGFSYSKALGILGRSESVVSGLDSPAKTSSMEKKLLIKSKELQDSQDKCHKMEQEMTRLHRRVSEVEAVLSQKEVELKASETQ
# Experimental: The ability of compounds to inhibit human CIT kinase activities was determined using a commercially available ADP-Glo™ Kinase Assay kit (Promega, Cat #V9102) according to the manufacturer's protocol.
# Recombinant human CIT (1-499) (expressed in Sf9 insect cells with an N-terminal GST tag) was purchased from SignalChem (Cat #C52-11G). Recombinant full length human MBP (expressed in E. Coli cells with an N-terminal GST tag) was purchased from SignalChem (Cat #M42-54G). This assay, run in a 384-well plate format, is a generic method for measuring kinase activities using an ADP-Glo Kinase Assay Kit. The basic assay procedure involves two steps: (1) Enzymatic step: inhibitors are incubated with the kinase and then ATP (included in the ADP-Glo Kinase Assay Kit) and the MBP protein are added to start the enzymatic reaction; (2) Detection step: after the kinase reaction, first ADP-Glo™ Reagent is added to terminate the kinase reaction and deplete the remaining ATP. Second, the Kinase Detection Reagent is added to simultaneously convert ADP to ATP and allow the newly synthesized ATP to be measured using a luciferase/luciferin reaction. The light generated is measured using a luminometer.
# as §1, with “CIT (20” for “CK2a2 (CSNK2a2) (7”, “0.05” for “0.04”, “5” for “15”
# as §2
# [3] = ADP-Glo, ATP 15 μM, read-out: CK2 alpha 2 IC50
# [4] = ADP-Glo, ATP 5 μM, read-out: CIT IC50
SMILES,"IC50 [1, 3] [µM]","IC50 [2, 4] [µM]",IC50 [1] [µM],IC50 [2] [µM]
"CCN(C1=N/C(=C\c2ccc3c(c2)OCO3)C(=O)N1)c1ccccc1 [Example 4, (Z)-5-(benzo[d][1,3]dioxol-5-ylmethylene)-2-(ethyl(phenyl)amino)-3,5-dihydro-4H-imidazol-4-one]",0.1 to 1,> 10,–,–
"CC(=O)N(C1=N/C(=C\c2ccc3c(c2)OCO3)C(=O)N1)c1ccccc1 [Example 5, (Z)—N-(4-(benzo[d][1,3]dioxol-5-ylmethylene)-5-oxo-4,5-dihydro-1H-imidazol-2-yl)-N-phenylacetamide]",–,–,< 0.1,> 10
"Cc1nc2ccc(NC3=N/C(=C\c4ccc5ncsc5c4)C(=O)N3)cc2s1 [Example 90, (Z)-5-(benzo[d]thiazol-6-ylmethylene)-2-((2-methylbenzo[d]thiazol-6-yl)amino)-3,5-dihydro-4H-imidazol-4-one]",< 0.1,> 10,–,–
"Nc1ccc(NC2=N/C(=C\c3ccc4ncsc4c3)C(=O)N2)cc1 [Example 98, (Z)-2-((4-aminophenyl)amino)-5-(benzo[d]thiazol-6-ylmethylene)-3,5-dihydro-4H-imidazol-4-one]",< 0.1,0.1 to 1,–,–
